The test concerns P. aeruginosa 26. In words: In vitro antibacterial activity, two-fold agar-plate dilution method (MIC). The format is cell-based. As to conditions: Pseudomonas aeruginosa, heart infusion agar, 10^8 viable cells per ml, 37° C. for 20 hours, read-out: MIC (minimal inhibitory concentration). The method, then:
Now in order to show the utility of the object compound [I], the test data on MIC (minimal inhibitory concentration) of representative compound [I] of this invention is shown in the following.
In vitro antibacterial activity was determined by the two-fold agar-plate dilution method as described below.
One loopful of an overnight culture of each test strain in Trypticase-soy broth (10^8 viable cells per ml) was streaked on heart infusion agar (HI-agar) containing graded concentrations of representative test compound, and the minimal inhibitory concentration (MIC) was expressed in terms of μg/ml after incubation at 37° C. for 20 hours.

Counter-ions that a name gives are not always drawn.

Drawing on US5187160A, “Cephem compound” (Fujisawa Pharmaceutical Co., Ltd., priority 1989, dated 1993), this text covers MIC for one molecule.

With `CCON=C(C(=O)NC1C(=O)N2C(C(=O)[O-])=C(C[n+]3ccc(N)n3CCO)CSC12)c1csc(N)n1` (stereo not drawn) [Example 2, Sulfuric acid salt of 7β-[2-(2-aminothiazol-4-yl)-2-ethoxyiminoacetamido]-3-[3-amino-2-(2-hydroxyethyl)-1-pyrazolio]methyl-3-cephem-4-carboxylate (syn isomer)], the MIC worked out at 1.56 µg/mL.
